Test results published in patent US20220023533A1, “SUBCUTANEOUS DELIVERY OF HIGH CONCENTRATION FORMULATIONS” (JAZZ PHRMACETICALS IRELAND LIMITED, priority 2018, published 2022).
One block for each compound: values may come before it.

How the values were obtained:
[1] = cited from earlier work; for pKa2: α-ammonium ion; for pKa1: α-carboxyl group; for pKa3: side chain group
[2] = Viscosity of defibrotide formulations with various buffers and excipients; format: physicochemical
Description: (§1) It is important for pharmaceutical preparations for oral or parenteral administration to be of low-viscosity and/or isotonic. In order to identify buffers or excipients that may lower the viscosity and/or osmolality of defibrotide formulations, a wide-panel screening of various buffers and excipients (including GRAS excipients) was performed using a 200 mg/mL defibrotide formulation.

[3] = Osmolality of defibrotide formulations with various buffers and excipients; format: physicochemical
Description: as §1

Compound: N[C@@H](Cc1ccccc1)C(=O)O [Phenylalanine]
pI [1]: 5.48
pKa2 [1]: 9.13
pKa1 [1]: 1.83

Compound: CC(C)[C@H](N)C(=O)O [Valine]
pI [1]: 5.96
pKa2 [1]: 9.62
pKa1 [1]: 2.32

Compound: C[C@H](N)C(=O)O [Alanine]
pI [1]: 6.00
pKa2 [1]: 9.69
pKa1 [1]: 2.34

Compound: N[C@@H](CO)C(=O)O [Serine]
pI [1]: 5.68
pKa2 [1]: 9.15

Effect of increasing the defibrotide concentration in the formulation on viscosity [2]: increase
Effect of increasing the defibrotide concentration in the formulation on osmolality [3]: increase
Compound: Defibrotide

Compound: N=C(N)NCCC[C@H](N)C(=O)O [Arginine]
pI [1]: 10.76
pKa3 [1]: 12.48
pKa2 [1]: 9.04
pKa1 [1]: 2.17

Compound: CC[C@H](C)[C@H](N)C(=O)O [Isoleucine]
pI [1]: 6.02
pKa2 [1]: 9.60
pKa1 [1]: 2.36

Compound: O=S(=O)(O)CCN1CCN(CCO)CC1 [HEPES buffer]
pKa value ([1]; buffer or excipient): 7.564

Compound: N[C@@H](Cc1c[nH]c2ccccc12)C(=O)O [Tryptophan]
pKa2 [1]: 9.39
pKa1 [1]: 2.83

Compound: N[C@@H](Cc1ccc(O)cc1)C(=O)O [Tyrosine]
pI [1]: 5.66

Compound: CSCC[C@H](N)C(=O)O [Methionine]
pI [1]: 5.74
pKa2 [1]: 9.21
pKa1 [1]: 2.28

Compound: C[C@@H](O)[C@H](N)C(=O)O [Threonine]
pI [1]: 5.60
pKa2 [1]: 9.10
pKa1 [1]: 2.09

Compound: NCCCC[C@H](N)C(=O)O [Lysine]
pI [1]: 9.74
pKa3 [1]: 10.53
pKa2 [1]: 8.95
pKa1 [1]: 2.18

Compound: O=C(O)[C@@H]1CCCN1 [Proline]
pI [1]: 6.30
pKa2 [1]: 10.6
pKa1 [1]: 1.99

Compound: NC(=O)C[C@H](N)C(=O)O [Asparagine]
pI [1]: 5.41
pKa2 [1]: 8.80
pKa1 [1]: 2.02

Compound: N[C@@H](CS)C(=O)O [Cysteine]
pI [1]: 5.07
pKa2 [1]: 8.18
pKa1 [1]: 1.96
